Experiment [1] relates to guinea-pigs left atria. The experiment in a line: Guinea pig left atria test: force of atrial contraction. To be noted: Cavia porcellus. From the text:
Male Hartley guinea-pigs (300-400 grams) were sacrificed by cervical dislocation or carbon dioxide asphyxiation. The hearts were immediately removed and placed in oxygenated Krebs-Henseleit buffer (composition (millimolar): Na⁺ 143, K⁺ 5.9, Ca⁺⁺ 1.25, Mg⁺⁺ 1.2, Cl⁻ 128, HCO₃⁻ 25, SO₄⁻⁻ 1.2, H₂PO₄⁻ 1.0, and D-glucose 10). Left atria were dissected away from the remainder of the heart and mounted on holders against platinum punctate electrodes. The mounted atria were placed in tissue baths maintained at 31°C and oxygenated with 95% 0₂-5% CO₂ under 1.0 gram resting tension. The atria were stimulated through the punctate electrode and an external platimum electrode at the threshold voltage plus thirty percent, one Hertz frequency and five to ten milliseconds duration. Contractions were detected with a force displacement transducer and recorded on a physiograph. […]
Direct effects of the test compounds on the force of atrial contraction were observed and recorded after addition of the compounds to the tissue bath. […] Responses to the test compounds and forskolin were expressed as a percentage of the maximal response to forskolin. EC₅₀ values for the test compounds were calculated as the concentration of the compound neceesary to produce an inotropic response half that of the maximal response produced by the test compound. […]

Experiment [2] has as its target T1, Beta-1 adrenoceptor (Rattus norvegicus, UniProt P18090).
T1 construct: rat brain cortices were used as the source of membrane vesicles; from tissue; host or cells: rat brain cortex membranes
The experiment in a line: Beta adrenoceptor binding assay: [I-125]-Pindolol displacement from rat brain cortical membranes. As to conditions: IC₅₀ for displacement of [I-125]-Pindolol, 22°C, two hours, read-out: pIC₅₀ (converted). The protocol: Because of its receptor density rat brain cortices were used as the source of membrane vesicles to be used in the receptor binding assays. Freshly excised cortexes were homogenized in 20 volumes (w/v) 50 mM TRIS HCl Buffer (pH 7.5), with a glass/Teflon homogenizer following the procedure previously described by T.J. Rimele in J. Pharmacol. Exp. Ther. 239: 1-8, 1986. Beta-1 adrenoceptor binding activity was determined following methods described by M.H. Randall, et al, J. Med. Chem. 20: 1090-1094, 1977, and J. Homberger, et al in Mol. Pharmacol. 20: 453-469, 1981. The incubation mixture consisted of; 26 microliters of 50 mM TRIS/HCl, 10 mM MgCl₂ pH 7.6 buffer, 25 microliters of test drug or 10-6 pindolol to define nonspecific binding, 100 microliters of [I-125]-Pindolol (2200 Ci/mM) at a final concentration of 10-9, and 100 microliters of brain cortical membranes. […] The radioactivity in each filter containing the trapped membrane particles was counted with a gamma counter. […] All specific binding values obtained in the presence of test compounds were expressed as the percentage of specific binding displaced by the individual agents. The resultant values were plotted on a log plot of concentration of test compound vs. percentage of displacement and an IC₅₀ value (drug concentration which produces 50% displacement) determined. […]

Experiment [3] has as its system barbiturate-anesthetized dogs. The experiment is described as follows: Anesthetized dog: inotropic effect (dP/dt) and inhibition of the isoproterenol response. It counts as in vivo. As to conditions: for ED50: Canis lupus familiaris, iv, i.v. infusion, cumulative dose. The method, then:
Inotropic effects were evaluated in barbiturate-anesthetized dogs by differentiating left intraventricular pressure. This procedure was carried out essentially as described by M.K. Grizzel et al in the FASEB Journal, Vol. 3, page 1039, abstract 4728 (1989). Purpose breed mongrel dogs (14-20 kg) of either sex were anesthetized with a mixture of sodium pentobarbital (15 mg/kg) and sodium barbital (300 mg/kg) i.v., intubated with a cuffed endotracheal tube and ventilated with a respirator (Harvard Apparatus, model 613, South Natick, MA) with room air (22 rpm,10-12 ml/kg/stroke). A 5F pressure transducer (Millar Instruments, Mikkro-tip Houston, TX) was inserted through the right carotid artery into the left ventricle to monitor intraventricular pressure. The left ventricular pressure signal was differentiated (using a 100 Hz low pass differential amplifier, Gould Inc., Cleveland, OH) to obtain its maximal rate of rise (+dP/dt), and used to trigger a biotach amplifier to record heart rate. Cardiac output was determined via thermodilution with a Spectramed computer (Starcom, Oxnard, CA) and a 5F Swan Ganz catheter which was inserted into the right jugular vein and positioned in the pulmonary artery. The femoral artery was cannulated for monitoring arterial blood pressure with a pressure transducer (Micron model MP15D, Simi Valley, CA). A lead II electrocardiogram was measured using subcutaneous electrodes. […] Rectal temperature was monitored and maintained at 37-38°C with a heating pad (Baxter Health Care model K20, McGaw Park, IL). All variables were recorded using a Gould 3800S physiograph.
Isoproterenol ([…]) was injected i.v. into the cephalic vein at 10 min intervals except for when the test drug infusion was begun. […] Inhibition of the isoproterenol responses on contractility (dP/dt), heart rate and diastolic blood pressure were determined at each dose of test compound. The inotropic effect of each compound was determined by comparing the level of dP/dt at the end of each 10 min period to that of the level of dP/dt just prior to the infusion of test compound. […]

Experiment [4] has as its system rat aorta. The experiment in a line: Rat aorta protocol: relaxation of phenylephrine-contracted rat aorta rings (endothelium removed). As to conditions: percentage of maximal relaxation produced by nitroprusside (1 X 10⁻⁴ M), at the highest dose tested (100 micromolar), read-out: maximal response. The method, then: Such vasorelaxation appears to be related to inhibition of the phosphodiesterase (PDE) isozyme related to the cardiac sarcoplasmic reticulum. Thus, relaxation of rat aorta can be used as a screen to eliminate compounds which are not PDE inhibitors prior to testing for actual inotropic activity.
Rings of rat aorta (endothelium removed) were prepared for the measurement of isometric force in isolated tissue organ chambers essentially as previously described by T.J. Rimele et al in the Journal of Pharmacol. Exp. Ther. 245:102-111 (1988). The experimental portion of the protocol began with the addition of methylene blue (1 X 10⁻⁵ M) and propranolol (1 X 10⁻⁶ M) to each organ chamber to inhibit basal cGMP accumulation due to soluble guanylate cyclase and beta-adrenoceptors. Phenylephrine (1 X 10⁻⁷ M) was then added and the rings were allowed to obtain a stable contractile response after which time, the test compound was added in a cumulative fashion. The relaxation induced by each concentration of the test compound was expressed as a percentage of the maximal relaxation produced by nitroprusside (1 X 10⁻⁴ M). […] The IC₅₀ (concentration of test compound which produced a relaxation equivalent to 50% of the maximal relaxation induced by nitroprusside) was determined for each tissue. […]

The results in this text go back to patent publication EP0412814A2, “Pyridazinones having cardiotonic and beta blocking activity” (GLAXO WELLCOME INC., priority 1989, dated 1991).

Like-named read-outs stand apart in the source and are kept apart here.

T1 sequence (P18090 whole entry): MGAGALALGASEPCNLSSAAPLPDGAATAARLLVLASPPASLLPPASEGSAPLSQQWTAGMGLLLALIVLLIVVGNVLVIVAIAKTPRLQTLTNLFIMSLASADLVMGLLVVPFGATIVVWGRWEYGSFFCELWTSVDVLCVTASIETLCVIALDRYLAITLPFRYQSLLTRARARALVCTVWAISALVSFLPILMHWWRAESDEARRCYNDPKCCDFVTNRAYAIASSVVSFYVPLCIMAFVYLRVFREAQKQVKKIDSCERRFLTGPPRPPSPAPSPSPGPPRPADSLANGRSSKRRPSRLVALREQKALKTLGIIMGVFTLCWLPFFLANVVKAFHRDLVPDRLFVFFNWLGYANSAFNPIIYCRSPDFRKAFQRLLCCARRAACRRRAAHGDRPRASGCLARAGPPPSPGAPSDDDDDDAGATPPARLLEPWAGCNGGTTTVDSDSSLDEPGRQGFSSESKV

As to `O=C(COc1ccc(C2=NNC(=O)CC2)cc1Cl)NCCNC[C@H](O)COc1ccccc1` [Example 19, 6-{4-[N-[2-[3-phenoxy-2-hydroxypropylamino]ethyl]carbamoylmethoxy]-3-chlorophenyl}-4,5-dihydro-3(2H)-pyridazinone], the EC50 in experiment [1] (concentration producing an inotropic response half that of the maximal response produced by the test compound, read-out: ED₅₀) is 9 µM. For the same compound, the Emax at 100 µM in experiment [1] (percentage of the maximal response to forskolin, at 100 micromolar, propranolol and phentolamine (1.0 micromolar) present) was 83%; in experiment [4], 100%. The IC50 in experiment [2] is 0.0269 µM. Besides, the ED50 in experiment [3] (50% increase in dP/dt compared to a baseline established prior to drug infusion, read-out: inotropic ED₅₀) was determined as 0.114 µmol/kg; in experiment [3] (50% inhibition of the dP/dt response to isoproterenol, read-out: ED₅₀ for inhibition of the isoproterenol response) it was 0.469 µmol/kg. In experiment [3] (whether the inotropic effects are blocked by atenolol), the “inotropic effects with atenolol” value is “not blocked by atenolol”.
